# Read-outs that look alike come from different tables or passages of the source.
# Assays:
# H. influenzae A21518 = experiment: Minimum Inhibitory Concentration, tube dilution; format: cell-based; settings: Haemophilus influenzae, overnight 37° C.
# S. aureus A-9606 = experiment: Protective effect, intramuscular treatment of infected mice; format: in vivo; settings: Staphylococcus aureus, A9606, im; i.m.; challenge 1 × 10^9; read-out: PD50 /Treatment
# Description: (§1) The PD50 (dose in mg/kg required to give protection to 50% of the infected mice) is indicated.
# (§2) Treatment Schedule: Mice were treated i.m. with drugs 0 and 2 hours
# (§3) 3.5 hours (all others); 5 mice were used for each test.
# P. aeruginosa A-9843A [1] = experiment: Minimum Inhibitory Concentration, tube dilution; format: cell-based; settings: Pseudomonas aeruginosa, A9843A
# P. vulgaris A21559 = experiment: Minimum Inhibitory Concentration, tube dilution; format: cell-based; settings: Proteus vulgaris, A21559, overnight 37° C.
# S. faecalis A20688 = experiment: Minimum Inhibitory Concentration, tube dilution; format: cell-based; settings: Enterococcus faecalis
# M. morganii A15149 = experiment: Protective effect, intramuscular treatment of infected mice; format: in vivo; settings: Morganella morganii, A15149, im; i.m.; challenge 7 × 10^5; read-out: PD50 /Treatment
# Description: as §1, §2, §3
# S. pneumoniae A-9585 = experiment: Minimum Inhibitory Concentration, tube dilution; format: cell-based; settings: Streptococcus pneumoniae, A9585, overnight 37° C.
# P. aeruginosa A20599 = experiment: Protective effect, intramuscular treatment of infected mice; format: in vivo; settings: Pseudomonas aeruginosa, A20599, im; i.m.; challenge 9 × 10^4; read-out: PD50 /Treatment
# Description: as §1, §2, §3
# H. influenzae A-9833 = experiment: Minimum Inhibitory Concentration, tube dilution; format: cell-based; settings: Haemophilus influenzae, A9833
# H. influenzae A20178 = experiment: Minimum Inhibitory Concentration, tube dilution; format: cell-based; settings: Haemophilus influenzae, overnight 37° C.
# E. cloacae A-9569 = experiment: animal or person; settings: Enterobacter cloacae, A9569, in Mus musculus, im, read-out: PD50 /Treatment
# Description: as §1, §2, §3
# S. marcescens A20335 = experiment: Protective effect, intramuscular treatment of infected mice; format: in vivo; settings: Serratia marcescens, A20335, im; i.m.; challenge 9 × 10^6; read-out: PD50 /Treatment
# Description: as §1, §2, §3
# P. mirabilis A-9900 [2] = experiment: animal or person; settings: Proteus mirabilis, A9900, in Mus musculus, im, read-out: PD50 /Treatment, i.m.; challenge 4 × 10^6
# Description: as §1, §2, §3
# [3] = Urinary recovery in mice after intramuscular administration; format: in vivo; settings: mouse, urine, im, 20 mg/kg, 20 mg/kg i.m., read-out: Percentage of Dose Recovered (urine)
# Excerpt: | a single test; 4 mice per compound.
# P. rettgeri A15167-2 = experiment: Protective effect, intramuscular treatment of infected mice; format: in vivo; settings: Providencia rettgeri, A151672, im; i.m.; challenge 3 × 10^7; read-out: PD50 /Treatment
# Description: as §1, §2, §3
# E. coli A15119 = experiment: Minimum Inhibitory Concentration, tube dilution; format: cell-based; settings: Escherichia coli, A15119, 10^-4 dil.
# P. rettgeri A22424 = experiment: Minimum Inhibitory Concentration, tube dilution; format: cell-based; settings: Providencia rettgeri, overnight 37° C., read-out: MIC
# [4] = Toxicity after intracranial administration to mice; settings: mouse, in vivo
# P. aeruginosa A-9843a [5] = experiment: Protective effect, intramuscular treatment of infected mice; format: in vivo; settings: Pseudomonas aeruginosa, A9843A, im; challenge 3 × 10^4; Historical data; read-out: PD50 /Treatment
# Description: as §1, §2, §3
# S. aureus A-9537 = experiment: Minimum Inhibitory Concentration, tube dilution; format: cell-based; settings: Staphylococcus aureus, read-out: MIC
# P. aeruginosa A20481 = experiment: Protective effect, intramuscular treatment of infected mice; format: in vivo; settings: Pseudomonas aeruginosa, A20481, im; i.m.; challenge 3 × 10^4; read-out: PD50 /Treatment
# Description: as §1, §2, §3
# [6] = Blood levels in mice after intramuscular administration; format: in vivo; settings: mouse, im, 20 mg/kg i.m.
# Excerpt: a single test; 4 mice used per compound.
# S. pyogenes A-9604 = experiment: Minimum Inhibitory Concentration, tube dilution; format: cell-based; settings: Streptococcus pyogenes, A9604, overnight 37° C.
# [7] = Half-life in phosphate buffer pH 7.4; format: physicochemical; settings: phosphate buffer
# Description: To a solution of p-nitrobenzyl 3-[2-(1-pyridinium)ethylthio)]-6α[1-(R)-hydroxyethyl]-7-oxo-1-azabicyclo(3.2.0)hept-2-ene-carboxylate diphenylphosphate (0.16 g, 0.22 mmol) in wet tetrahydrofuran (10mL) was added ether (10mL), potassium phosphate monobasic-sodium hydroxide buffer pH 7.4 (16 mL, 0.05 M) and 10% palladium on charcoal (0.16 g). The resulting mixture was hydrogenated under 40 psi for 1 h at 25° C. The two phases were separated and the organic phase was extracted with water (2×3 mL). The aqeuous solutions were combined, washed with ether (2×10 ml) and poured on top of a column (1.5×6.2 cm) pf μ-bondapak C-18 after the traces of organic solvents have been removed under vacuum. Elution of the column with water gave after lyophylization of the appropriate fractions a yellowish powder 0.062 g (84%), ir (KBr) .nu.max : 3700-3000 (OH), 1755 (C--O of β-lactam), 1630 (pyridinium), 1590 cm^-1 (carboxylate), ^1 Hmr (D2 O): 1.22 (3H, d, J=6.4 Hz, CH3 CHOH), 2.92 (d, J=9.1 Hz, H-4), 2.97 (d, J=9.1 Hz, H-4), 3.20 (dd, J=2.5 Hz, J=6.1 Hz, H-6), 3.44 (t, J=6.0 Hz, CH2 S), 3.93 (dd, J=9.1 Hz, J=2.5 Hz, H-5), 4.82 (t, J=6.0 Hz, CH2 N^+), 8.04 (m, Hm of pyridinium), 8.5 (m, Hp of pyridinium), 8.82 (dd, J=3.2. Hz, J=1.1 Hz, Ho of pyridinium), uv (H2 O) λ max : 259 (ε5800), 296 (ε7030) mμ, .tau.1/2 =13.5 h (measured at a concentration of 10^-4 M in phosphate buffer pH 7.4 at 36.8° C.).
# K. pneumoniae A-9664 [8] = experiment: Protective effect, intramuscular treatment of infected mice; format: in vivo; settings: Klebsiella pneumoniae, A9664, im; i.m.; challenge 7 × 10^6; read-out: PD50 /Treatment
# Description: as §1, §2, §3
# H. influenzae A21522 = experiment: Minimum Inhibitory Concentration, tube dilution; format: cell-based; settings: Haemophilus influenzae, overnight 37° C.
# E. coli A20341-1 = experiment: Minimum Inhibitory Concentration, tube dilution; format: cell-based; settings: Escherichia coli, A203411, 10^-4
# in vivo = settings: mouse
# B. fragilis A22696 = experiment: Minimum Inhibitory Concentration, tube dilution; format: cell-based; settings: Bacteroides fragilis, overnight 37° C., read-out: MIC
# [9] = tested on: S. aureus A-9606 (Pen-res.); experiment: Minimum Inhibitory Concentration, tube dilution; format: cell-based; settings: Staphylococcus aureus
# [10] = tested on: S. aureus A15097 (Meth-res.); experiment: Minimum Inhibitory Concentration, tube dilution; format: cell-based; settings: Staphylococcus aureus, table 6
# P. aeruginosa A21213 = experiment: Minimum Inhibitory Concentration, tube dilution; format: cell-based; settings: Pseudomonas aeruginosa, A21213, overnight 37° C.; table 6; read-out: MIC
# M. morganii A15153 = experiment: Minimum Inhibitory Concentration, tube dilution; format: cell-based; settings: Morganella morganii, A15153, overnight 37° C.; table 6
# P. mirabilis A9900 = experiment: Protective effect, intramuscular treatment of infected mice (table 8); format: in vivo; settings: Proteus mirabilis, A9900, im; i.m. 0 and 2 h post-infection; 4×10^7 organisms i.p.; read-out: PD50 /treatment
# Description: as §1
# K. pneumoniae A-9664 [11] = experiment: Minimum Inhibitory Concentration, tube dilution; format: cell-based; settings: Klebsiella pneumoniae, A9664, overnight 37° C.; table 6
# S. marcescens A20019 = experiment: Minimum Inhibitory Concentration, tube dilution; format: cell-based; settings: Serratia marcescens, A20019, overnight 37° C.; table 6
# P. aeruginosa A9843A = experiment: animal or person; format: in vivo, mice; settings: Pseudomonas aeruginosa, in Mus musculus, im, read-out: PD50 /treatment
# Description: as §1
# P. mirabilis A-9900 [12] = experiment: Minimum Inhibitory Concentration, tube dilution; format: cell-based; settings: Proteus mirabilis, A9900, overnight 37° C.; table 6
# [13] = tested on: various Pseudomonas species; settings: cited from earlier work
smiles,measurement,setting,value
"C[C@@H](O)[C@H]1C(=O)N2C(C(=O)[O-])=C(SCC[n+]3ccccc3)C[C@H]12 [Example 1, 3-[2-(1-Pyridinium)ethylthio]-6α-[1-(R)-hydroxyethyl]-7-oxo-1-azabicyclo (3.2.0)-hept-2-ene-2-carboxylate]",MIC,H. influenzae A21518,8 µg/mL
same,ED50,S. aureus A-9606,0.11 mg/kg
same,MIC,P. aeruginosa A-9843A [1],2 µg/mL
same,MIC,P. vulgaris A21559,0.03 µg/mL
same,MIC,S. faecalis A20688; A20688,0.5 µg/mL
same,ED50,M. morganii A15149,4.4 mg/kg
same,MIC,S. pneumoniae A-9585,2 ng/mL
same,ED50,P. aeruginosa A20599,3 mg/kg
same,MIC,H. influenzae A-9833,8 µg/mL
same,MIC,H. influenzae A20178,8 µg/mL
same,ED50,E. cloacae A-9569,0.4 mg/kg
same,ED50,S. marcescens A20335,3.3 mg/kg
same,ED50,P. mirabilis A-9900 [2],19 mg/kg
same,dose excreted at 3 h,[3]; 0-3 hours,23.3%
same,dose excreted at 24 h,[3]; 0-24 hours,24.2 ± 5.3%
same,dose excreted at 6 h,[3]; 3-6 hours,0.5%
same,dose excreted at 24 h,[3]; 6-24 hours,0.4%
same,ED50,P. rettgeri A15167-2,5.7 mg/kg
same,MIC,E. coli A15119,0.03 µg/mL
same,MIC,P. rettgeri A22424,0.5 µg/mL
same,LD50,[4],> 40 mg/kg
same,ED50,P. aeruginosa A-9843a [5],0.8 mg/kg
same,MIC,"S. aureus A-9537; A9537, + 50% serum",0.03 µg/mL
same,MIC,"S. aureus A-9537; A9537, overnight 37° C.",0.008 µg/mL
same,ED50,P. aeruginosa A20481,0.8 mg/kg
same,AUC,[6],6400 ng·h/mL
same,half-life,[6],9 min
same,MIC,S. pyogenes A-9604,8 ng/mL
same,half-life at 100 µM,"[7]; pH 7.4, τ1/2 (half-life)",810 min
same,ED50,K. pneumoniae A-9664 [8],7.7 mg/kg
same,MIC,H. influenzae A21522,8 µg/mL
same,MIC,E. coli A20341-1,0.03 µg/mL
same,NOAEL,in vivo,> 40 mg/kg
same,MIC,B. fragilis A22696,0.5 µg/mL
same,MIC,[9]; Pen-res.,0.016 µg/mL
"C[C@@H](O)[C@H]1C(=O)N2C(C(=O)[O-])=C(SCC[n+]3cccc(N)c3)C[C@H]12 [Example 14, (5R, 6S)-3-[2-(3-aminopyridinio)ethylthio]-6-[1-(R)-hydroxyethyl]-7-oxo-1-azabicyclo[3.2.0]-hept-2-ene-2-carboxylate]",MIC,[10],8 ng/mL
same,MIC,P. aeruginosa A21213,1 µg/mL
same,MIC,"P. aeruginosa A-9843A [1]; overnight 37° C., table 6, read-out: MIC",2 µg/mL
same,MIC,M. morganii A15153,0.03 µg/mL
same,MIC,P. vulgaris A21559; table 6,0.016 µg/mL
same,MIC,"S. faecalis A20688; A20688, overnight 37° C., table 6, read-out: MIC",0.5 µg/mL
same,MIC,S. pneumoniae A-9585; table 6,2 ng/mL
same,ED50,P. mirabilis A9900,5.4 mg/kg
same,MIC,K. pneumoniae A-9664 [11],0.06 µg/mL
same,MIC,S. marcescens A20019,0.06 µg/mL
same,MIC,"S. aureus A-9537; A9537, 50% serum, table 6",0.016 µg/mL
same,MIC,"S. aureus A-9537; A9537, overnight 37° C., table 6",0.008 µg/mL
same,ED50,P. aeruginosa A9843A,0.78 mg/kg
same,MIC,S. pyogenes A-9604; table 6,4 ng/mL
same,half-life,"[7]; pH 7.4, t1/2 (half-life)",1110 min
same,MIC,P. mirabilis A-9900 [12],0.03 µg/mL
same,MIC,"[9]; Pen-res, table 6",0.008 µg/mL
"C[C@@H](O)[C@H]1C(=O)N2C(C(=O)O)=C(SCCN)C[C@H]12 [Thienamycin, thienamycin]",activity against various Pseudomonas species,[13],notable activity

# From patent publication US4642341A, “Carbapenem antibiotics” (priority 1985, dated 1987)
